Values of other authors, collected in patent publication US11020355B2, “Method of encapsulating cannabinoids in phospholipid carriers” (NuVessl, Inc., priority 2018, dated 2021).
Read-outs that look alike come from different tables or passages of the source.

Tests used:
[1] = set-up: AUC (0-10.5 hours): unit not given beside the values; details: oromucosal, historic data
[2] = oral administration

C=C(C)[C@@H]1CCC(C)=C[C@H]1c1c(O)cc(CCCCC)cc1O [CBD, cannabidiol]
C max ([1]; 10 mg CBD): 3.0 microgram per liter (nanogram per mL)
C max ([1]; 15 mg CBD): 3.7 microgram per liter (nanogram per mL)
AUC (0-10.5 hours) ([1]; 5-15 mg CBD): 4.1-12.6
Tmax ([1]; 5-15 mg CBD): 3.6 to 4.5 h
bioavailability [2]: 6%-15%
